In patent US4771057A, “Reduced pyridyl derivatives with cardiovascular regulating properties” (University of Alberta, priority 1986, dated 1988):
Read-outs that look alike come from different tables or passages of the source.

Tested on: guinea pig ileal longitudinal smooth muscle
Test: Calcium channel antagonist testing: inhibition of muscarinic receptor-mediated Ca2+-dependent contraction (response to CD) of guinea pig ileal longitudinal smooth muscle
Assay type: cell-based
Conditions: for IC50: 50% inhibition of tonic contraction to CD 5×10^-7 M, compound added 10 min before CD, 37° C., pH 7.4, read-out: Calcium channel antagonist act., inhib. act. on contractile response to CD, ID50; for calcium channel antagonist activity, comparison to Nifedipine (TM): conclusion from Table 7
Procedure: Male albino guinea pigs (body weight 300-450 g) were sacrificed by decapitation. The intestine was removed above the ileo-caecal junction. Longitudinal smooth muscle segments of 2 cm length were mounted under a resting tension of 300-400 mg. […] The muscles were equilibrated for 1 h with a solution change every 15 min. Two successive control contractions were elicited at 15 min intervals with 5×10^-7 M cis-2-methyl- 4-dimethylaminomethyl-1,3-dioxolane methiodide (CD). The isometric contractions were recorded with a force displacement transducer (FT 03C) on a GRASS physiograph. The means of the two contractile responses was taken as the 100% value for the tonic (slow) component of the response. The muscle was washed with Hepes saline solution and was allowed to re-equilibrate. The calcium antagonist (test compound) was added ten min before the dose-response for CD was determined. The drug-induced inhibition of contraction was expressed as percent of control. The ID50 values were graphically determined from the concentration-response curves.

Compound | IC50 (Cavia porcellus) [µM] | IC50 [µM] | calcium channel antagonist activity, comparison to Nifedipine (TM)
CCOC(=O)C1=C(C)NC(C)=C(C(=O)OCC)C1C1CC=CCN1C [Compound D-65, Diethyl 2,6-dimethyl-4-[2'-(N--methyl-1',2',3',6'-tetrahydropyridyl)]-1,4-dihydropyridine-3,5-dicarboxylate] | 13 | – | –
COC(=O)C1=C(C)NC(C)=C(C(=O)OCC(C)C)C1c1cccnc1 [Compound D-7, 3-Isobutyl-5-methyl 2,6-dimethyl-4-(3'-pyridyl)-1,4-dihydropyridine-3,5-dicarboxylate] | 56 | – | active calcium channel antagonists, being comparable to Nifedipine (TM)
COC(=O)C1=C(C)NC(C)=C(C(=O)OC)C1C1CC=CCN1C [Compound D-64] | 64.7 | – | –
CC1=C(C(=O)OCC(C)C)C(c2ccncc2)C(C(=O)OCC(C)C)=C(C)N1 [Compound D-23, 3,5-Diisobutyl 2,6-dimethyl-4-(4'-pyridyl)-1,4-dihydropyridine-3,5-dicarboxylate] | 0.58 | – | active calcium channel antagonists, being comparable to Nifedipine (TM)
CC1=C(C(=O)OC(C)C)C(c2cccnc2)C(C(=O)OC(C)C)=C(C)N1 [Compound D-18] | 0.26 | – | active calcium channel antagonists, being comparable to Nifedipine (TM)
COC(=O)C1=C(C)NC(C)=C(C(=O)OC)C1C1=CCN(C)CC1 [Compound D-66, Dimethyl 2,6-dimethyl-4-[4'-(N--methyl-1',2',3',6'-tetrahydropyridyl)]-1,4-dihydropyridine-3,5-dicarboxylate] | 181 | – | –
CC1=C(C(=O)OC(C)C)C(c2ccccn2)C(C(=O)OC(C)C)=C(C)N1 [Compound D-14, 3,5-Diisopropyl 2,6-dimethyl-4-(2'-pyridyl)-1,4-dihydropyridine-3,5-dicarboxylate] | 0.125 | – | active calcium channel antagonists, being comparable to Nifedipine (TM)
CCOC(=O)C1=C(C)NC(C)=C(C(=O)OCC)C1c1cccnc1 [Compound D-17, 3,5-Diethyl 2,6-dimethyl-4-(3'-pyridyl)-1,4-dihydropyridine-3,5-dicarboxylate] | 0.346 | – | active calcium channel antagonists, being comparable to Nifedipine (TM)
COC(=O)C1=C(C)NC(C)=C(C(=O)OCCN(C)C)C1c1ccncc1 [Compound D-12, 3-[2-(N,N--dimethylamino)ethyl] -5-methyl 2,6-dimethyl-4-(4'-pyridyl)-1,4-dihydropyridine-3,5-dicarboxylate] | 51.3 | – | –
COC(=O)C1=C(C)N(C)C(C)C(C(=O)OC)=C1c1ccccc1 (stereo not drawn) [Compound S-1, Dimethyl 1,2,6-trimethyl-4-phenyl-1,2-dihydropyridine-3,5-dicarboxylate] | 2.15 | – | –
CCOC(=O)C1=C(C)NC(C)=C(C(=O)OCC)C1C1=CCN(C)CC1 [Compound D-67, Diethyl 2,6-dimethyl-4-[4'-(N--methyl-1',2',3',6'-tetrahydropyridyl)]-1,4-dihydropyridine-3,5-dicarboxylate] | 4.96 | – | –
CCOC(=O)C1=C(C)NC(C)=C(C(=O)OCC)C1c1ccccn1 [Compound D-13, 3,5-diethyl 2,6-dimethyl-4-(2'-pyridyl)-1,4-dihydropyridine-3,5-dicarboxylate] | 0.18 | – | –
COC(=O)C1=C(C)NC(C)=C(C(=O)OC)C1C1=CCCN(C)C1 [Compound D-68, Dimethyl 2,6-dimethyl-4-[5'-(N--methyl-1',2',3',6'-tetrahydropyridyl)]-1,4-dihydropyridine-3,5-dicarboxylate] | 3.43 | – | –
COC(=O)C1=C(C)NC(C)=C(C(=O)OC)C1c1cccnc1 [Compound D-5, 3,5-Dimethyl 2,6-dimethyl-4-(3'-pyridyl)-1,4-dihydropyridine-3,5-dicarboxylate] | 3.83 | – | –
COC(=O)C1=C(C)NC(C)=C(C#N)C1c1ccncc1 [Compound D-26] | 87.7 | – | –
COC(=O)C1=C(C)NC(C)=C(C(=O)OCC(C)C)C1C1=CCN(C(=O)OC)C=C1 [Compound D-60, 3-Isobutyl-5-methyl 2,6-dimethyl-4-[4'-(N--methoxycarbonyl)]-1,4-dihydropyridine-3,5-dicarboxylate] | 1.76 | – | –
CC1=C(C#N)C(c2ccncc2)C(C#N)=C(C)N1 [Compound D-28, 3,5-dicyano-2,6-dimethyl-4-(4'-pyridyl)-1,4-dihydropyridine] | 130 | – | –
CC1=C(C(=O)OCCN(C)C)C(c2cccnc2)C(C(=O)OCCN(C)C)=C(C)N1 [Compound D-20, 3,5-Bis-[2-(N,N--dimethylamino)ethyl]2,6-dimethyl-4-(3'pyridyl)-1,4-dihydropyridine-3,5-dicarboxylate] | 179 | – | –
COC(=O)C1=C(C)NC(C)=C(C(=O)OCC(C)C)C1c1ccncc1 [Compound D-11, 3-Isobutyl-5-methyl 2,6-dimethyl-4-(4'-pyridyl)-1,4-dihydropyridine-3,5-dicarboxylate] | 0.22 | – | active calcium channel antagonists, being comparable to Nifedipine (TM)
Diethyl 2,6-dimethyl-4-{3'-[N--t-butoxycarbonyl-1',2'-(1',6'-)dihydropyridyl]}-1,4-dihydropyridine-3,5-dicarboxylate [Compound D-40] | – | 0.672 | active calcium channel antagonists, being comparable to Nifedipine (TM)
COC(=O)C1=C(C)NC(C)=C(C(=O)OCC(C)C)C1C1=CCN(C(=O)Oc2ccccc2)C=C1 [Compound D-61, 3-Isobutyl-5-methyl 2,6-dimethyl-4-[4'-(N--phenoxycarbonyl)]-1,4-dihydropyridine-3,5-dicarboxylate] | 81 | – | –

Now from value to compound, other results behind:

IC50 (Cavia porcellus) [µM] | IC50 [µM] | Compound | calcium channel antagonist activity, comparison to Nifedipine (TM)
20 | – | COC(=O)C1=C(c2ccccc2[N+](=O)[O-])C(C(=O)OC(C)C)=C(C)N(C)C1C (stereo not drawn) [Compound W-2, 3-Methyl-5-isopropyl 1,2,6-trimethyl-4-(2-nitrophenyl)-1,2-dihydropyridine-3,5-dicarboxylate] | –
23.5 | – | COC(=O)C1=C(C)N(C)C(C)C(C(=O)OC)=C1c1ccc([N+](=O)[O-])cc1 (stereo not drawn) [Compound S-4, Dimethyl 1,2,6-trimethyl-4-(4-nitrophenyl)-1,2-dihydropyridine-3,5-dicarboxylate] | –
– | 1.67 | Diisopropyl 2,6-dimethyl-4-{3'-[N-- phenoxycarbonyl-1',2'-(1',6'-)dihydropyridyl]}-1,4-dihydropyridine-3,5-dicarboxylate [Compound D-38] | –
– | 52 | 3-Methyl 5-cyano-2,6-dimethyl-4-{3'-[N--methoxycarbonyl-1',2'-(1',6'-)dihydropyridyl]}-1,4-dihydropyridine-3-carboxylate [Compound D-46] | –
7.9 | – | COC(=O)C1=C(C)N(C)C(C)C(C(=O)OC)=C1c1cccc([N+](=O)[O-])c1 (stereo not drawn) [Compound S-5, Dimethyl 1,2,6-trimethyl-4-(3-nitrophenyl)-1,2-dihydropyridine-3,5-dicarboxylate] | –
– | 0.18 | Diethyl 2,6-dimethyl-4-{3'-[N--methoxycarbonyl-1',2'-(1',6'-)dihydropyridyl]}-1,4-dihydropyridine-3,5-dicarboxylate [Compound D-33] | active calcium channel antagonists, being comparable to Nifedipine (TM)
3.5 | – | COC(=O)C1=C(C)N(C)C(C)C(C(=O)OC)=C1c1cccc(C(F)(F)F)c1 (stereo not drawn) [Compound S-2, Dimethyl 1,2,6-trimethyl-4-(3-trifluoromethylphenyl)-1,2-dihydropyridine-3,5-dicarboxylate] | –
– | 0.131 | Diisopropyl 2,6-dimethyl-4-{3'-[N--methoxycarbonyl-1',2'-(1',6'-)dihydropyridyl]}-1,4-dihydropyridine-3,5-dicarboxylate [Compound D-34] | active calcium channel antagonists, being comparable to Nifedipine (TM)
– | 3.7 | Dimethyl 2,6-dimethyl-4-{3'-[N--phenoxycarbonyl-1',2'-(1',6'-)dihydropyridyl]}-1,4-dihydropyridine-3,5-dicarboxylate [Compound D-36] | –
– | 0.045 | 3-Isobutyl-5-methyl 2,6-dimethyl-4-{3'-[N--phenoxycarbonyl-1',2'-(1',6'-)dihydropyridyl]}-1,4-dihydropyridine-3,5-dicarboxylate [Compound D-44] | active calcium channel antagonists, being comparable to Nifedipine (TM)
8.92 | – | COC(=O)C1=C(C)N(C)C(C)C(C(=O)OC)=C1c1ccc(C(F)(F)F)cc1 (stereo not drawn) [Compound W-1, Dimethyl 1,2,6-trimethyl-4-(4-trifluoromethylphenyl)-1,2-dihydropyridine-3,5-dicarboxylate] | –
12 | – | COC(=O)C1=C(C)N(C)C(C)C(C(=O)OC)=C1c1ccccc1C(F)(F)F (stereo not drawn) [Compound S-3, Dimethyl 1,2,6-trimethyl-4-(2-trifluoromethylphenyl)-1,2-dihydropyridine-3,5-dicarboxylate] | –
– | 0.865 | Diethyl 2,6-dimethyl-4-{3'-[N--phenoxycarbonyl-1',2'-(1',6'-)dihydropyridyl]}-1,4-dihydropyridine-3,5-dicarboxylate [Compound D-37] | active calcium channel antagonists, being comparable to Nifedipine (TM)
